In brackets after ≈: the same amount, converted by molar mass.
Tests used:
[1] = Antiviral activity against bovine rotavirus RF in MA104 cells; type: functional, cell-based, Bovine rotavirus strain RF; conditions: Rotavirus A
Caco-2 [2] = assay: Cytotoxicity against human Caco-2 cells after 72 hrs; type: cell-based; conditions: Caco-2, 72 h
[3] = Antiviral activity against bovine rotavirus RF in MA 104 cells assessed as neutralization of virus in solution before cell attachment; type: functional, cell-based, Bovine rotavirus strain RF; conditions: Rotavirus A
[4] = Inhibition of bovine rotavirus RF infectivity following virus attachment to MA 104 cells; type: functional, cell-based, Bovine rotavirus strain RF; conditions: Rotavirus A
Caco-2 [5] = assay: Growth inhibition of human Caco-2 cells after 72 hrs; type: functional, cell-based; conditions: Caco-2, 72 h
[6] = Stimulation of proliferation of monkey MA104 cells at 30 ng/mL after 72 hrs relative to control; type: functional, Macaca mulatta

IC50 [1]	IC50 [3]	IC50 [4]	IC50 (Caco-2 [5])	Structure (SMILES)	IC50 (Caco-2 [2])	Activity [6]
4 µg/mL (≈ 15 µM)	60 µg/mL (≈ 225 µM)	15 µg/mL (≈ 56.1 µM)	15 µg/mL (≈ 56.1 µM)	Cc1cn([C@H]2C[C@H](N=[N+]=[N-])[C@@H](CO)O2)c(=O)[nH]c1=O [ZIDOVUDINE]	15 µg/mL (≈ 56.1 µM)	–
–	70 µg/mL (≈ 179 µM)	70 µg/mL (≈ 179 µM)	2500 µg/mL (≈ 6390 µM)	O=C(Nc1ccn(C[C@@H]2O[C@H](CO)[C@@H](O)[C@H](F)C2=O)c(=O)n1)c1ccccc1	1500 µg/mL (≈ 3830 µM)	40%

Reference: ChEMBL document CHEMBL1144539, “Fluoro-ketopyranosyl nucleosides: synthesis and biological evaluation of 3-fluoro-2-keto-beta-D-glucopyranosyl derivatives of N4-benzoyl cytosine” (Bioorg Med Chem, 2007)
